Measured values published in patent publication US11466023B2, “Combination of a Mcl-1 inhibitor and a standard of care treatment for hematologic cancers, uses and pharmaceutical compositions thereof” (LES LABORATOIRES SERVIER, priority 2017, dated 2022).
pIC50: −log10 of the molar value. Where two headings read alike, the source gives them in different places.

Key:
[1] = system: mononuclear cells from AML patient samples; assay: Cell viability assay (Sytox blue flow cytometry) in primary AML samples; format: cell-based, human; details: Homo sapiens, 48 h, combination at 1:1 ratio, read-out: 50% lethal concentration (LC50)
Description: Bone marrow samples from patients with AML were collected after informed consent in accordance with guidelines approved by The Alfred Hospital Human research ethics committee.
Mononuclear cells were isolated by density-gradient centrifugation Ficoll-Hypaque (GE Healthcare, Australia) density-gradient centrifugation and red cell lysis was performed using 0.156 M NH4Cl, 0.017 M Tris-HCl pH 7.2 as previously described (Rijal et al., Blood 2015, 125, 2815-2824). Cells were then re-suspended in phosphate-buffered saline containing 2% Fetal Bovine serum (FBS; Sigma, Australia). Mononuclear cells were then suspended in RPMI-1640 (GIBCO, Australia) medium containing penicillin and streptomycin (GIBCO) and heat inactivated fetal bovine serum 15% (Sigma). Cells were washed in phosphate-buffered saline (PBS) containing 2% FBS prior to use.
Freshly purified mononuclear cells from AML patient samples were adjusted to a concentration of 2.5×10^5/mL and 100 μL of cells aliquoted per well into 96 well plates (Sigma). Cells were then treated with idarubicin and Compound 2 over a […] concentration range from 1 nM to 10 μM for 48 hours. For combinations assays, drugs were added at a 1:1 ratio from 1 nM to 10 μM and cells were incubated at 37° C. 5% CO2. Cells were then stained with Sytox blue nucleic acid stain (Invitrogen, Australia) and fluorescence measured by flow cytometric analysis using the LSR-II Fortessa (Becton Dickinson, Australia). FACSDiva software was used for data collection, and FlowJo software for analysis. Blast cells were gated using forward and side scatter properties. Viable cells excluding Sytox blue were determined at 6 concentrations for each drug and the 50% lethal concentration (LC50, in μM) determined.

OCI-AML3 AML cell line = assay: Single agent cell viability (CellTiterGlo); format: cell-based; details: Homo sapiens, OCI-AML-3, 72 h; OCI-AML3, single agent, 3 days incubation, CellTiterGlo; read-out: IC50
Description: (§1) Cell lines were cultured at 37° C. in a humidified atmosphere containing 5% CO2 and expanded in T-150 flasks. […] In order to analyse the activity of the compounds as single agents, cells were seeded and treated with nine 2-fold serial dilutions of each compound dispensed individually directly into the cell assay plates. […] All the experiments were performed in triplicates. Luminescence was quantified on a multipurpose plate reader. Single agent IC50s were calculated using standard four-parametric curve fitting.

KG1a AML cell line = assay: Single agent cell viability (CellTiterGlo); format: cell-based; details: Homo sapiens, KG-1a, 72 h; KG1a, single agent, 3 days incubation, CellTiterGlo; read-out: IC50
Description: as §1

KG1 AML cell line = assay: Single agent cell viability (CellTiterGlo); format: cell-based; details: 72 h; KG1, single agent, 3 days incubation, CellTiterGlo; read-out: IC50
Description: as §1

HL-60 AML cell line = assay: Single agent cell viability (CellTiterGlo); format: cell-based; details: Homo sapiens, 72 h; HL-60, single agent, 3 days incubation, CellTiterGlo; read-out: IC50
Description: as §1

Nomo-1 AML cell line = assay: Single agent cell viability (CellTiterGlo); format: cell-based; details: Homo sapiens, 72 h; Nomo-1, single agent, 3 days incubation, CellTiterGlo; read-out: IC50
Description: as §1

GDM-1 AML cell line = assay: Single agent cell viability (CellTiterGlo); format: cell-based; details: Homo sapiens, 72 h; GDM-1, single agent, 3 days incubation, CellTiterGlo; read-out: IC50
Description: as §1

ML-2 AML cell line = assay: Single agent cell viability (CellTiterGlo); format: cell-based; details: 72 h; ML-2, single agent, 3 days incubation, CellTiterGlo; read-out: IC50
Description: as §1

EOL-1 AML cell line = assay: Single agent cell viability (CellTiterGlo); format: cell-based; details: Homo sapiens, EOL1, 72 h; EOL-1, single agent, 3 days incubation, CellTiterGlo; read-out: IC50
Description: as §1

PL-21 AML cell line = assay: Single agent cell viability (CellTiterGlo); format: cell-based; details: 72 h; PL-21, single agent, 3 days incubation, CellTiterGlo; read-out: IC50
Description: as §1

MOLM-13 AML cell line = assay: Single agent cell viability (CellTiterGlo); format: cell-based; details: Homo sapiens, 72 h; MOLM-13, single agent, 3 days incubation, CellTiterGlo; read-out: IC50
Description: as §1

MV4; 11 AML cell line = assay: Single agent cell viability (CellTiterGlo); format: cell-based; details: Homo sapiens, 72 h; MV4; 11, single agent, 3 days incubation, CellTiterGlo; read-out: IC50
Description: as §1

THP-1 AML cell line = assay: Single agent cell viability (CellTiterGlo); format: cell-based; details: Homo sapiens, 72 h; THP-1, single agent, 3 days incubation, CellTiterGlo; read-out: IC50
Description: as §1

Kasumi-1 AML cell line = assay: Single agent cell viability (CellTiterGlo); format: cell-based; details: Homo sapiens, 72 h; Kasumi-1, single agent, 3 days incubation, CellTiterGlo; read-out: IC50
Description: as §1

Question: What does the source list for CC(=O)[C@]1(O)Cc2c(O)c3c(c(O)c2[C@@H](O[C@H]2C[C@H](N)[C@H](O)[C@H](C)O2)C1)C(=O)c1ccccc1C3=O [Idarubicin, idarubicin]?
Answer: CC50 ([1]; Patient AML 6200840, 48 hours): 384 nM; CC50 ([1]; Patient AML AH0131936, 48 hours): 886 nM; CC50 ([1]; Patient AML AH0465385, 48 hours): 5130 nM; CC50 ([1]; Patient AML AH0607688, 48 hours): 593 nM; CC50 ([1]; Patient AML AH0979006, 48 hours): 1.07 nM; CC50 ([1]; Patient AML AH1081582, 48 hours): 184 nM; CC50 ([1]; Patient AML AH1228742, 48 hours): 404000 nM; CC50 ([1]; Patient AML AH6120264, 48 hours): 328 nM; CC50 ([1]; Patient AML AH6181414_2, 48 hours): 3470 nM; CC50 ([1]; Patient AML AH6202849, 48 hours): 2870 nM; CC50 ([1]; Patient AML AH6208160, 48 hours): 1750 nM; CC50 ([1]; Patient AML AH6208654, 48 hours): 308 nM; CC50 ([1]; Patient AML AH6210946, 48 hours): 105 nM; CC50 ([1]; Patient AML AH6214498, 48 hours): 1.11 nM; CC50 ([1]; Patient AML AH6217528, 48 hours): 33.5 nM; CC50 ([1]; Patient AML AH6219953, 48 hours): 4370 nM; CC50 ([1]; Patient AML AH6220847, 48 hours): 14.4 nM; CC50 ([1]; Patient AML AH6223646, 48 hours): 315 nM; CC50 ([1]; Patient AML AH6224104, 48 hours): 192000 nM; CC50 ([1]; Patient AML AH6229985, 48 hours): 1.38 nM; CC50 ([1]; Patient AML AH6607085, 48 hours): 563 nM; CC50 ([1]; Patient AML AH6615742, 48 hours): 2930 nM; CC50 ([1]; Patient AML AH6627892, 48 hours): 2200 nM; pIC50 (OCI-AML3 AML cell line): 7.70; pIC50 (KG1a AML cell line): 8.00; pIC50 (KG1 AML cell line): 8.22; pIC50 (HL-60 AML cell line): 8.70; pIC50 (Nomo-1 AML cell line): 7.55; pIC50 (GDM-1 AML cell line): 8.10; pIC50 (ML-2 AML cell line): 8.00; pIC50 (EOL-1 AML cell line): 8.70; pIC50 (PL-21 AML cell line): 7.64; pIC50 (MOLM-13 AML cell line): 8.52; pIC50 (MV4; 11 AML cell line): 9.00; pIC50 (THP-1 AML cell line): 7.62; pIC50 (Kasumi-1 AML cell line): 8.52
